Test results as given in PMC11187126, “Structure and dynamics of the pyroglutamylated RF-amide peptide QRFP receptor GPR103” (Nature Communications, 2024).
Where two headings read alike, the source gives them in different places. No end group written: not given here.

Molecular target: T1, GPR103 V129^3.36A (Homo sapiens, UniProt Q96P65, V129A)
T1 construct: we used human full-length QRFPR-encoding plasmids; expressed in transfected cells; host or cells: HEK293 cells, pCAGGS vector
T1 sequence (Q96P65 1-431 V129A): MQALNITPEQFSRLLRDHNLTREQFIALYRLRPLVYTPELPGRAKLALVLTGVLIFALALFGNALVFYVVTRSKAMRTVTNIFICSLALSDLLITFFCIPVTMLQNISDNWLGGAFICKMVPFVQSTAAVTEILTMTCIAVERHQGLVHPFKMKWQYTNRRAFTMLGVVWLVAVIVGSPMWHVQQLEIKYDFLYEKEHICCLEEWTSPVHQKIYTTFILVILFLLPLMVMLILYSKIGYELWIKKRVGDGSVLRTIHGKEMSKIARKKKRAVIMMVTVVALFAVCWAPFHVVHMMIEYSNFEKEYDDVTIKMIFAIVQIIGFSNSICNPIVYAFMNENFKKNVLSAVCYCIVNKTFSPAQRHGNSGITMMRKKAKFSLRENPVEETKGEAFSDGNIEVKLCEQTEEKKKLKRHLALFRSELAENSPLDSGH
Assay: TGFα shedding assay; Exp. level WT (1:20)
Assay type: cell-based

## TSGPLGNLAEELNGYSRKKGGFSFRF-NH2 [QRFP26]
Exp. #1
  Emax: 92.74 % WT
Exp. #2
  Emax: 87.58 % WT
Exp. #3
  Emax: 97.49 % WT
mean, read-out: Emax
  Emax: 92.6%
N = 3
  EC50: 135 nM
N = 3, read-out: Emax
  Emax: 96.2 ± 2.3%
